In this assay the target is soluble guanylate cyclase (human GUCYA3 and GUCYB3) overexpressed in CHO cells (Homo sapiens (Human), UniProt Q02108+Q02153). The assay can be described thus: CHO cellular assay (cGMP production, Cisbio cGMP HTRF kit). Format: cell-based. Conditions: CHO GUCY clone 8E10, cGMP production, assay buffer with 1 mM IBMX and 20 uM ODQ, 1 h room temperature; minimum quantification limit 0.5 nM (listed 0.5 nM means ≤0.5 nM); read-out: EC50. From the text:
Chinese hamster ovary (CHO) cells overexpressing soluble guanylate cyclase were generated to test the effect of sGC activators in a cellular context. Human cDNAs for GUCYA3 (RefSeq: NM_000856.3) and GUCYB3 (RefSeq: NM_000857.1) were amplified by PCR from a HUVEC (Human Umbilical Vein Endothelial Cells) cDNA library and cloned into mammalian expression vectors. CHO K1 cells (ATCC CCL-61) were transfected using Lipofectamine 2000 following manufacturer's instructions and stably expressing clones were identified by antibiotic selection. CHO GUCY clone 8E10 was used for subsequent experiments. Cells were seeded at a density of 3000 cells/well in white 384-well proxyplates (Perkin Elmer) and incubated overnight, then the medium was removed and cells were washed with assay buffer (HBSS, 0.1% BSA. 1 mM IBMX, 20 uM ODQ). sGC activators were serially diluted in DMSO, then diluted in assay buffer prior to adding to cells (10 ul/well, final DMSO concentration 0.5%). Cells were incubated with compounds for 1 h room temperature, then assayed for cGMP production using Cisbio cGMP HTRF kit (62GM2PEC) according to manufacturer's instructions. The EC50s are calculated based on the amount of cGMP interpolated from the standard curve, using a 4-parameter sigmoidal dose-response.
(In general: Time-resolved FRET reads energy transfer from a long-lived donor to a nearby acceptor.)

Drawing on US10550102B2, “Indane and indoline derivatives and the use thereof as soluble guanylate cyclase activators” (NOVARTIS AG, priority 2014, dated 2020), this text covers EC50 for 23 compounds.

soluble guanylate cyclase (human GUCYA3 and GUCYB3) overexpressed in CHO cells, sequence (Q02108 whole entry partner): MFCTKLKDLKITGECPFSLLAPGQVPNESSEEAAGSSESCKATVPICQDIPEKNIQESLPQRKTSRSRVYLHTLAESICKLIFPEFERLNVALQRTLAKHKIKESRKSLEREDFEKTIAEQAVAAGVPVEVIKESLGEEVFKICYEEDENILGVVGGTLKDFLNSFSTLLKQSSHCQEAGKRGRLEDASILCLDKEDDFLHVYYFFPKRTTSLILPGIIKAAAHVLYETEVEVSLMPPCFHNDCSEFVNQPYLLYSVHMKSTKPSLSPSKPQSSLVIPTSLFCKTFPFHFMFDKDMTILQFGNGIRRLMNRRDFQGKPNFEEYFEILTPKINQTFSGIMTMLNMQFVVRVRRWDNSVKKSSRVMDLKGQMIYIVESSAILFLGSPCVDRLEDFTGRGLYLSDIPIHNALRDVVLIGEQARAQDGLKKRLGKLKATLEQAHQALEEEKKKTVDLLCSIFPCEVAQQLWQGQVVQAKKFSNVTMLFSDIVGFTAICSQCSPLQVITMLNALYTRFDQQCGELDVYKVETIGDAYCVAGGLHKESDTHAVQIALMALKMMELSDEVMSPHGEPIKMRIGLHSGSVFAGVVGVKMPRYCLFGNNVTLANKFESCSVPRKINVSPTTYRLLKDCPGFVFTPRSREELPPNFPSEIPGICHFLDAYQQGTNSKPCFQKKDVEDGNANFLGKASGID
soluble guanylate cyclase (human GUCYA3 and GUCYB3) overexpressed in CHO cells, sequence (Q02153 whole entry): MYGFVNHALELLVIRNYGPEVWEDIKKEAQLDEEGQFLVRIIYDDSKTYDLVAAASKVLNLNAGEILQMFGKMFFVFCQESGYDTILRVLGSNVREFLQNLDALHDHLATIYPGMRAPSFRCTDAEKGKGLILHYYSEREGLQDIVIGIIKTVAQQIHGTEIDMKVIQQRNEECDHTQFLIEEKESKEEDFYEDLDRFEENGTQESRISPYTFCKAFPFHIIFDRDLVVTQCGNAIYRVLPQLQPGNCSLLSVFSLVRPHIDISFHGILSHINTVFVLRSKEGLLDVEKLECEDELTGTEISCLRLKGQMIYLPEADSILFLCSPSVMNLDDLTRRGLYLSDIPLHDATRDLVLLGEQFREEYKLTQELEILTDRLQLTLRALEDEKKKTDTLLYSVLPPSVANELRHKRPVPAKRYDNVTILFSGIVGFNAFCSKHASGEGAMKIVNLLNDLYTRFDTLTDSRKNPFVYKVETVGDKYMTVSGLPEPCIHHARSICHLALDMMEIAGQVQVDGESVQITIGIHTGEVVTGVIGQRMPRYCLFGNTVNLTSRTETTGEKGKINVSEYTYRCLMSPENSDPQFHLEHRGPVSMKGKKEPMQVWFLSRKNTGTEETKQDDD

What is called EC50 is the midpoint of the concentration-response curve. In the case of `Cc1cc2c(c(-c3cccc(-n4ncc(C(=O)O)c4C(F)(F)F)n3)c1)C(Nc1ccc(C3CCN(C(=O)C4CC4)CC3)cc1C)CC2` (racemic) [Example 11-1, (±)-1-(6-(3-((4-(1-(cyclopropanecarbonyl)piperidin-4-yl)-2-methylphenyl)amino)-6-methyl-2,3-dihydro-1H-inden-4-yl)pyridin-2-yl)-5-(trifluoromethyl)-1H-pyrazole-4-carboxylic acid], the concentration giving a half-maximal response (EC50) turned out to be 1 nM.

In the case of `Cc1cc(C2CCN(C(=O)C3CC3)CC2)ccc1NC1CCc2cccc(-c3cccc(-n4ncc(C(=O)O)c4C)c3)c21` (racemic) [Example 11-4, (±)-1-(3-(3-((4-(1-(cyclopropanecarbonyl)piperidin-4-yl)-2-methylphenyl)amino)-2,3-dihydro-1H-inden-4-yl)phenyl)-5-methyl-1H-pyrazole-4-carboxylic acid], the 50% effective concentration (EC50) is at most 0.5 nM.

Take `Cc1cc(C2CCN(c3ccccn3)CC2)ccc1NC1CCc2cccc(-c3cccc(-n4ncc(C(=O)O)c4C)n3)c21` (racemic) [Example 59, (±)-Methyl-16-(3-((2-methyl-4-(1-(pyridin-2-yl)piperidin-4-yl)phenyl)amino)-2,3-dihydro-1H-inden-4-yl)pyridin-2-yl)-1H-pyrazole-4-carboxylic Acid]: the EC50 is 1 nM.

For the compound `Cc1cc(C2CCN(C3CC3)CC2)ccc1NC1CCc2cccc(-c3cccc(-n4ncc(C(=O)O)c4C)n3)c21` (racemic) [Example 60, (±)-1-(6-(3-(4-(1-Cyclopropylpiperidin-4-yl)-2-methylphenyl)amino)-2,3-dihydro-1H-inden-4-yl)pyridin-2-yl)-5-methyl-1H-pyrazole-4-carboxylic Acid], the EC50 was 5.3 nM.

As for `Cc1cc(C2CCN(C(=O)C3CC3)CC2)cnc1NC1CCc2cccc(-c3cccc(-n4ncc(C(=O)O)c4C)n3)c21` (racemic) [Example 62, (±)-1-(6-(3-((5-(1-Cyclopropanecarbonyl)piperidin-4-yl)-3-methylpyridin-2-yl)amino)-2,3-dihydro-1H-inden-4-yl)pyridin-2-yl)-5-methyl-1H-pyrazole-4-carboxylic Acid], the EC50 came out at 6 nM.

Take `CCC(=O)N1CCC(c2ccc(NC3CCc4cccc(-c5cccc(-n6ncc(C(=O)O)c6C)n5)c43)c(C)c2)CC1` (single isomer, unassigned) [(+)-46-2, (−)-5-Methyl-1-(6-(3-((2-methyl-4-(1-propionylpiperidin-4-yl)phenyl)amino)-2,3-dihydro-1H-inden-4-yl)pyridin-2-yl)-1H-pyrazole-4-carboxylic acid]: the EC50 turned out to be 1 nM.

Consider `CCc1cc(CN2CC(C)c3cccc(-c4cccc(-n5ncc(C(=O)O)c5CC)n4)c32)ccc1C1CCN(C(=O)[C@H](C)O)CC1` (single isomer, unassigned) [Example 17a], for which the EC50 was at most 0.5 nM.

`CCc1cc(O[C@H]2CCc3cccc(-c4cccc(-n5ncc(C(=O)O)c5CC)n4)c32)ccc1C1CCN(C(=O)C(C)CCO)CC1` (single isomer, unassigned) [Example 32a]: the EC50 was at most 0.5 nM.

As to `Cc1c(NC2CCc3cccc(-c4cccc(-n5ncc(C(=O)O)c5C)n4)c32)ccc(C2CCN(C(=O)CC3CC3)CC2)c1F` (single isomer, unassigned) [Example (+) or (−)-46-4, 1-(6-(3-((4-(1-(2-cyclopropylacetyl)piperidin-4-yl)-3-fluoro-2-methylphenyl)amino)-2,3-dihydro-1H-inden-4-yl)pyridin-2-yl)-5-methyl-1H-pyrazole-4-carboxylic acid], the EC50 was found to be 1.4 nM.

As for `Cc1c(NC2CCc3cccc(-c4cccc(-n5ncc(C(=O)O)c5C)n4)c32)ccc(C2CCN(C(=O)CC3CC3)CC2)c1F` (single isomer, unassigned) [Example (−) or (+)-46-4, 1-(6-(3-((4-(1-(2-cyclopropylacetyl)piperidin-4-yl)-3-fluoro-2-methylphenyl)amino)-2,3-dihydro-1H-inden-4-yl)pyridin-2-yl)-5-methyl-1H-pyrazole-4-carboxylic acid], the EC50 turned out to be 136 nM.

With `CCc1cc(CC2CCc3cccc(-c4cccc(-n5ncc(C(=O)O)c5CC)n4)c32)ccc1C1CCN(C(=O)C2CC2)CC1` (single isomer, unassigned; (+)) [38-1 (+), (+)-1-(6-(3-(4-(1-(cyclopropanecarbonyl)piperidin-4-yl)-3-ethylbenzyl)-2,3-dihydro-1H-inden-4-yl)pyridin-2-yl)-5-ethyl-1H-pyrazole-4-carboxylic acid], the EC50 is at most 0.5 nM.

Regarding `CCc1cc(CC2CCc3cccc(-c4cccc(-n5ncc(C(=O)O)c5C)n4)c32)ccc1C1CCN(C(=O)C2CC2)CC1` (single isomer, unassigned; (+)) [38-2 (+), (+)-1-(6-(3-(4-(1-(cyclopropanecarbonyl)piperidin-4-yl)-3-ethylbenzyl)-2,3-dihydro-1H-inden-4-yl)pyridin-2-yl)-5-methyl-1H-pyrazole-4-carboxylic acid], the EC50 was at most 0.5 nM.

For `CCc1c(C(=O)O)cnn1-c1cccc(-c2cccc3c2C(Cc2ccc(C4CCN(C(=O)C5CC5)CC4)cc2C)CC3)n1` (single isomer, unassigned; (+)) [38-3 (+), (+)-1-(6-(3-(4-(1-(cyclopropanecarbonyl)piperidin-4-yl)-2-methylbenzyl)-2,3-dihydro-1H-inden-4-yl)pyridin-2-yl)-5-ethyl-1H-pyrazole-4-carboxylic acid], the EC50 was at most 0.5 nM.

On to `CCC[C@H](O)C(=O)N1CCC(c2ccc(CC3CCc4cccc(-c5cccc(-n6ncc(C(=O)O)c6CC)n5)c43)cc2CC)CC1` (single isomer, unassigned; (+)) [40-1 (+)], for which the EC50 is at most 0.5 nM.

Consider `CCc1c(C(=O)O)cnn1-c1cccc(-c2cccc3c2C(Cc2ccc(C4CCN(C(=O)[C@H](C)O)CC4)cc2C)CC3)n1` (single isomer, unassigned; (+)) [40-2 (+)], for which the EC50 is at most 0.5 nM.

With `CCC[C@H](O)C(=O)N1CCC(c2ccc(CC3CCc4cccc(-c5cccc(-n6ncc(C(=O)O)c6CC)n5)c43)c(C)c2)CC1` (single isomer, unassigned; (+)) [40-3 (+)], the EC50 was at most 0.5 nM.

For the compound `Cc1cc2c(c(-c3cccc(-n4ncc(C(=O)O)c4C(F)(F)F)n3)c1)C(Nc1ccc(C3CCN(C(=O)C4CC4)CC3)cc1C)CC2` (single isomer, unassigned; (+)) [43 (+), (+)-1-(6-(3-((4-(1-(Cyclopropanecarbonyl)piperidin-4-yl)-2-methylphenyl)amino)-6-methyl-2,3-dihydro-1H-inden-4-yl)pyridin-2-yl)-5-(trifluoromethyl)-1H-pyrazole-4-carboxylic acid], the EC50 was 1 nM.

Consider `Cc1cc(C2CCN(C(=O)C3CC3)CC2)ccc1NC1CCc2cccc(-c3cccc(-n4ncc(C(=O)O)c4C)c3)c21` (single isomer, unassigned; (+)) [44 (+), (+)-1-(3-(3-((4-(1-(cyclopropanecarbonyl)piperidin-4-yl)-2-methylphenyl)amino)-2,3-dihydro-1H-inden-4-yl)phenyl)-5-methyl-1H-pyrazole-4-carboxylic acid], for which the EC50 was at most 0.5 nM.

As for `Cc1cc(C2CCN(C(=O)C3CC3)CC2)ccc1CC1CCc2cccc(-c3cccc(-n4ncc(C(=O)O)c4C)c3)c21` (single isomer, unassigned; (+)) [54. b). (+), (+)-1-(3-(3-(4-(1-(cyclopropanecarbonyl)piperidin-4-yl)-2-methylbenzyl)-2,3-dihydro-1H-inden-4-yl)phenyl)-5-methyl-1H-pyrazole-4-carboxylic acid], the EC50 was 1 nM.

Consider `CCc1cc(CC2CCc3cccc(-c4cccc(-n5ncc(C(=O)O)c5C)c4)c32)ccc1C1CCN(C(=O)C2CC2)CC1` (single isomer, unassigned; (+)) [55-1 (+), (+)-1-(3-(3-(4-(1-(cyclopropanecarbonyl)piperidin-4-yl)-3-ethylbenzyl)-2,3-dihydro-1H-inden-4-yl)phenyl)-5-methyl-1H-pyrazole-4-carboxylic acid], for which the EC50 is at most 0.5 nM.

As for `Cc1nnc(N2CCC(c3ccc(NC4CCc5cccc(-c6cccc(-n7ncc(C(=O)O)c7C)n6)c54)c(C)c3)CC2)o1` (single isomer, unassigned; (+)) [58. b). (+), (+)-5-methyl-1-(6-(3-((2-methyl-4-(1-(5-methyl-1,3,4-oxadiazol-2-yl)piperidin-4-yl)phenyl)amino)-2,3-dihydro-1H-inden-4-yl)pyridin-2-yl)-1H-pyrazole-4-carboxylic acid], the EC50 was at most 0.5 nM.

In the case of `CCc1cc(CN2CC(C)c3cccc(-c4cccc(-n5ncc(C(=O)O)c5CC)n4)c32)ccc1C1CCN(C(=O)C2CC2)CC1` (single isomer, unassigned; (+)) [(+)-20-1, (+)-1-(6-(1-(4-(1-(Cyclopropanecarbonyl)piperidin-4-yl)-3-ethylbenzyl)-3-methylindolin-7-yl)pyridin-2-yl)-5-ethyl-1H-pyrazole-4-carboxylic acid], the EC50 is at most 0.5 nM.

On to `CCc1c(C(=O)O)cnn1-c1cccc(-c2cccc3c2N(Cc2ccc(C4CCN(C(=O)C5CC5)CC4)cc2C)CC3C)n1` (single isomer, unassigned; (+)) [(+)-20-2, (+)-1-(6-(1-(4-(1-(Cyclopropanecarbonyl)piperidin-4-yl)-2-methylbenzyl)-3-methylindolin-7-yl)pyridin-2-yl)-5-ethyl-1H-pyrazole-4-carboxylic acid], for which the EC50 amounted to 9.9 nM.
